Test results taken from patent US20230146455A1, “TREATMENT OF INFLAMMATORY DISEASES WITH PEPTIDES AND PHARMACEUTICAL COMPOSITIONS” (Yuyu Pharma, Inc., priority 2020, published 2023).
Values joined by “and” are separate entries in the source; they are usually repeats but may differ in a detail not shown here. Identical values can stand only once. Where a SMILES comes first, the peptide text is derived from it. [ ]: non-standard residue; d: D form. Hyp = O=C(O)[C@@H]1C[C@@H](O)CN1

Test system: IL-1 alpha/IL-1F1
Assay: Example 8 main study Luminex, LPS hPBMCs: IL-1 alpha/IL-1F1
Type: cell-based, human
Procedure: Human PBMCs were pretreated with YY-101, YDE-011, YDE-043 or reference compound; Xiidra® at various concentration (ranging from […] to 500 nM) for 2 h before stimulation. An equal volume of 0.5% DMSO was used as a vehicle control. Then, the cells were treated with LPS at 5 ug/ml, which was selected based on the pilot study. The supernatants from treated cells were harvested at 24 h and placed in a 96 well for Luminex cytokine & chemokine profiling using a Luminex 200 multiplex assay (Luminex; R&D system, USA).
The main study arm with triplicate wells per group in a 24-well plate: • 1. Blank • 2. PBMC: 0.5% DMSO • 3. PBMC+LPS (5 ug/ml) • 4. PBMC+YY-101 500 nM • 5. PBMC+YY-101 50 nM • 6. PBMC+YY-101 5 nM • 7. PBMC+YY-101 0.5 nM • 8. PBMC+LPS (5 ug/ml)+Xiidra® 500 nM • 9. PBMC+LPS (5 ug/ml)+Xiidra® 50 nM • 10. PBMC+LPS (5 ug/ml)+Xiidra® 5 nM • 11. PBMC+LPS (5 ug/ml)+Xiidra® 0.5 nM • 12. PBMC+LPS (5 ug/ml)+Xiidra® 0.05 nM • 13. PBMC+LPS (5 ug/ml)+Xiidra® 0.005 nM • 14. PBMC+LPS (5 ug/ml)+YY-101 500 nM • 15. PBMC+LPS (5 ug/ml)+YY-101 50 nM • 16. PBMC+LPS (5 ug/ml)+YY-101 5 nM • 17. PBMC+LPS (5 ug/ml)+YY-101 0.5 nM • 18. PBMC+LPS (5 ug/ml)+YY-101 0.05 nM • 19. PBMC+LPS (5 ug/ml)+YY-101 0.005 nM • 20. PBMC+LPS (5 ug/ml)+YDE-011 500 nM • 21. PBMC+LPS (5 ug/ml)+YDE-011 50 nM • 22. PBMC+LPS (5 ug/ml)+YDE-011 5 nM • 23. PBMC+LPS (5 ug/ml)+YDE-011 0.5 nM • 24. PBMC+LPS (5 ug/ml)+YDE-011 0.05 nM • 25. PBMC+LPS (5 ug/ml)+YDE-011 0.005 nM • 26. PBMC+LPS (5 ug/ml)+YDE-043 500 nM • 27. PBMC+LPS (5 ug/ml)+YDE-043 50 nM • 28. PBMC+LPS (5 ug/ml)+YDE-043 5 nM • 29. PBMC+LPS (5 ug/ml)+YDE-043 0.5 nM • 30. PBMC+LPS (5 ug/ml)+YDE-043 0.05 nM • 31. PBMC+LPS (5 ug/ml)+YDE-043 0.005 nM
Multiplex assay was used to measure 30 cytokines and chemokines. The 1:200 diluted cell supernatant and serial dilution of the standard were dispensed into a 96 well plate at 50 ul/well. Then, the pre-mixed cocktail of antibody-coated magnetic beads was dispensed at 50 ul/well and incubated at room temperature for 2 h in a horizontal orbital microplate shaker at 800±500 rpm. The beads were washed using a magnetic device to prevent loss. The biotin-antibody was dispensed in 50 ul of each well and incubated at room temperature for 1 h in a shaker at 800±500 rpm. After washing, streptavidin-PE was added at 50 ul/well and incubated at room temperature for 30 min in a shaker under the same conditions. Finally, after washing, wash buffer (100 ul/well) was added to the plate and incubated in a shaker for 2 min. The Luminex™ 200 setting were set according to the manufacturer's protocol. The data was calculated with a standard five-parameter logistic nonlinear regression analysis of the data (xPonent software 4.2, USA). Results were presented as concentration (ng/ml or pg/ml).

[1] = PBMC + LPS(5 ug/ml) + test article 0.005 nM, Mean
[2] = PBMC + LPS(5 ug/ml) + test article 0.005 nM, individual replicates
[3] = PBMC + LPS(5 ug/ml) + test article 0.05 nM, Mean
[4] = PBMC + LPS(5 ug/ml) + test article 0.05 nM, individual replicates
[5] = PBMC + LPS(5 ug/ml) + test article 0.5 nM, Mean
[6] = PBMC + LPS(5 ug/ml) + test article 0.5 nM, individual replicates
[7] = PBMC + LPS(5 ug/ml) + test article 5 nM, Mean
[8] = PBMC + LPS(5 ug/ml) + test article 5 nM, individual replicates
[9] = PBMC + LPS(5 ug/ml) + test article 50 nM, Mean
[10] = PBMC + LPS(5 ug/ml) + test article 50 nM, individual replicates
[11] = PBMC + LPS(5 ug/ml) + test article 500 nM, Mean
[12] = PBMC + LPS(5 ug/ml) + test article 500 nM, individual replicates
[13] = PBMC + test article 0.5 nM, no LPS, Mean
[14] = PBMC + test article 0.5 nM, no LPS, individual replicates (1st, 2nd)
[15] = PBMC + test article 5 nM, no LPS, Mean
[16] = PBMC + test article 5 nM, no LPS, individual replicates (1st, 2nd)
[17] = PBMC + test article 0.05 uM, no LPS, Mean
[18] = PBMC + test article 0.05 uM, no LPS, individual replicates (1st, 2nd)
[19] = PBMC + test article 50 nM, no LPS, Mean
[20] = PBMC + test article 50 nM, no LPS, individual replicates (1st, 2nd)
[21] = PBMC + test article 500 nM, no LPS, Mean
[22] = PBMC + test article 500 nM, no LPS, individual replicates (1st, 2nd)

CC(C)C[C@H](NC(=O)CNC(=O)[C@H](CC(=O)O)NC(=O)[C@H](CCC(N)=O)NC(=O)CNC(=O)[C@@H]1C[C@@H](O)CN1)C(=O)N[C@@H](C)C(=O)NCC(=O)N1CCC[C@H]1C(=O)N[C@@H](CCCCN)C(=O)O [YY-101] (H-[Hyp]GQDGLAGPK-OH; N-terminus and C-terminus assumed)
IL-1 alpha/IL-1F1 Concentration [1]: 424.2 pg/mL
IL-1 alpha/IL-1F1 MFI [1]: 28.3
IL-1 alpha/IL-1F1 Concentration [2]: 414.2 pg/mL and 383.2 pg/mL and 475.3 pg/mL
IL-1 alpha/IL-1F1 MFI [2]: 28.0 and 27.0 and 30.0
IL-1 alpha/IL-1F1 Concentration [3]: 479.4 pg/mL
IL-1 alpha/IL-1F1 MFI [3]: 30.2
IL-1 alpha/IL-1F1 Concentration [4]: 414.2 pg/ml (2×) and 609.8 pg/ml
IL-1 alpha/IL-1F1 MFI [4]: 28.0 (2×) and 34.5
IL-1 alpha/IL-1F1 Concentration [5]: 455.0 pg/mL
IL-1 alpha/IL-1F1 MFI [5]: 29.3
IL-1 alpha/IL-1F1 Concentration [6]: 460.1 pg/ml (2×) and 444.9 pg/ml
IL-1 alpha/IL-1F1 MFI [6]: 29.5 (2×) and 29.0
IL-1 alpha/IL-1F1 Concentration [7]: 485.3 pg/mL
IL-1 alpha/IL-1F1 MFI [7]: 30.3
IL-1 alpha/IL-1F1 Concentration [8]: 444.9 pg/mL and 475.3 pg/mL and 535.6 pg/mL
IL-1 alpha/IL-1F1 MFI [8]: 29.0 and 30.0 and 32.0
IL-1 alpha/IL-1F1 Concentration [9]: 429.2 pg/mL
IL-1 alpha/IL-1F1 MFI [9]: 28.5
IL-1 alpha/IL-1F1 Concentration [10]: 383.2 pg/mL and 398.7 pg/mL and 505.6 pg/mL
IL-1 alpha/IL-1F1 MFI [10]: 27.0 and 27.5 and 31.0
IL-1 alpha/IL-1F1 Concentration [11]: 449.6 pg/mL
IL-1 alpha/IL-1F1 MFI [11]: 29.2
IL-1 alpha/IL-1F1 Concentration [12]: 460.1 pg/mL and 505.6 pg/mL and 383.2 pg/mL
IL-1 alpha/IL-1F1 MFI [12]: 29.5 and 31.0 and 27.0
IL-1 alpha/IL-1F1 Concentration [13]: 155.5 pg/mL
IL-1 alpha/IL-1F1 MFI [13]: 20.0
IL-1 alpha/IL-1F1 Concentration [14]: 155.5 pg/mL
IL-1 alpha/IL-1F1 MFI [14]: 20.0
IL-1 alpha/IL-1F1 Concentration [15]: 155.5 pg/mL
IL-1 alpha/IL-1F1 MFI [15]: 20.0
IL-1 alpha/IL-1F1 Concentration [16]: 155.5 pg/mL
IL-1 alpha/IL-1F1 MFI [16]: 20.0
IL-1 alpha/IL-1F1 Concentration [17]: 92.0 pg/mL
IL-1 alpha/IL-1F1 MFI [17]: 18.3
IL-1 alpha/IL-1F1 Concentration [18]: 45.8 pg/mL and 138.1 pg/mL
IL-1 alpha/IL-1F1 MFI [18]: 17.0 and 19.5
IL-1 alpha/IL-1F1 Concentration [19]: 111.1 pg/mL
IL-1 alpha/IL-1F1 MFI [19]: 18.8
IL-1 alpha/IL-1F1 Concentration [20]: 138.1 pg/mL and 84.2 pg/mL
IL-1 alpha/IL-1F1 MFI [20]: 19.5 and 18.0
IL-1 alpha/IL-1F1 Concentration [21]: 84.2 pg/mL
IL-1 alpha/IL-1F1 MFI [21]: 18.0
IL-1 alpha/IL-1F1 Concentration [22]: 84.2 pg/mL
IL-1 alpha/IL-1F1 MFI [22]: 18.0

CC(C)C[C@H](NC(=O)[C@H](CCC(N)=O)NC(=O)CNC(=O)[C@@H]1C[C@@H](O)CN1)C(=O)NCC(=O)O [YDE-043] (H-[Hyp]GQLG-OH; N-terminus and C-terminus assumed)
LPS-induced IL-1a levels (in words) (LPS 5 ug/mL 24 hrs): significantly lowered
IL-1 alpha/IL-1F1 Concentration [1]: 489.6 pg/mL
IL-1 alpha/IL-1F1 MFI [1]: 30.5
IL-1 alpha/IL-1F1 Concentration [2]: 383.2 pg/mL and 490.5 pg/mL and 595.1 pg/mL
IL-1 alpha/IL-1F1 MFI [2]: 27.0 and 30.5 and 34.0
IL-1 alpha/IL-1F1 Concentration [3]: 330.9 pg/mL
IL-1 alpha/IL-1F1 MFI [3]: 25.3
IL-1 alpha/IL-1F1 Concentration [4]: 351.9 pg/ml and 320.3 pg/ml (2×)
IL-1 alpha/IL-1F1 MFI [4]: 26.0 and 25.0 (2×)
IL-1 alpha/IL-1F1 Concentration [5]: 351.9 pg/mL
IL-1 alpha/IL-1F1 MFI [5]: 26.0
IL-1 alpha/IL-1F1 Concentration [6]: 351.9 pg/mL and 367.6 pg/mL and 336.2 pg/mL
IL-1 alpha/IL-1F1 MFI [6]: 26.0 and 26.5 and 25.5
IL-1 alpha/IL-1F1 Concentration [7]: 465.1 pg/mL
IL-1 alpha/IL-1F1 MFI [7]: 29.7
IL-1 alpha/IL-1F1 Concentration [8]: 505.6 pg/ml and 444.9 pg/ml (2×)
IL-1 alpha/IL-1F1 MFI [8]: 31.0 and 29.0 (2×)
IL-1 alpha/IL-1F1 Concentration [9]: 434.5 pg/mL
IL-1 alpha/IL-1F1 MFI [9]: 28.7
IL-1 alpha/IL-1F1 Concentration [10]: 475.3 pg/mL and 444.9 pg/mL and 383.2 pg/mL
IL-1 alpha/IL-1F1 MFI [10]: 30.0 and 29.0 and 27.0
IL-1 alpha/IL-1F1 Concentration [11]: 424.2 pg/mL
IL-1 alpha/IL-1F1 MFI [11]: 28.3
IL-1 alpha/IL-1F1 Concentration [12]: 475.3 pg/mL and 414.2 pg/mL and 383.2 pg/mL
IL-1 alpha/IL-1F1 MFI [12]: 30.0 and 28.0 and 27.0

CC(C)C[C@H](NC(=O)CNC(=O)[C@H](CC(C)C)NC(=O)[C@H](CCC(N)=O)NC(=O)CNC(=O)[C@@H]1C[C@@H](O)CN1)C(=O)N[C@@H](C)C(=O)NCC(=O)N1CCC[C@H]1C(=O)N[C@@H](CCCCN)C(=O)O [YDE-011] (H-[Hyp]GQLGLAGPK-OH)
IL-1 alpha/IL-1F1 Concentration [1]: 510.2 pg/mL
IL-1 alpha/IL-1F1 MFI [1]: 31.2
IL-1 alpha/IL-1F1 Concentration [2]: 595.1 pg/mL and 460.1 pg/mL and 475.3 pg/mL
IL-1 alpha/IL-1F1 MFI [2]: 34.0 and 29.5 and 30.0
IL-1 alpha/IL-1F1 Concentration [3]: 510.3 pg/mL
IL-1 alpha/IL-1F1 MFI [3]: 31.2
IL-1 alpha/IL-1F1 Concentration [4]: 535.6 pg/mL and 550.5 pg/mL and 444.9 pg/mL
IL-1 alpha/IL-1F1 MFI [4]: 32.0 and 32.5 and 29.0
IL-1 alpha/IL-1F1 Concentration [5]: 403.8 pg/mL
IL-1 alpha/IL-1F1 MFI [5]: 27.7
IL-1 alpha/IL-1F1 Concentration [6]: 429.6 pg/mL and 383.2 pg/mL and 398.7 pg/mL
IL-1 alpha/IL-1F1 MFI [6]: 28.5 and 27.0 and 27.5
IL-1 alpha/IL-1F1 Concentration [7]: 324.6 pg/mL
IL-1 alpha/IL-1F1 MFI [7]: 25.2
IL-1 alpha/IL-1F1 Concentration [8]: 256.0 pg/mL and 288.4 pg/mL and 429.6 pg/mL
IL-1 alpha/IL-1F1 MFI [8]: 23.0 and 24.0 and 28.5
IL-1 alpha/IL-1F1 Concentration [9]: 278.0 pg/mL
IL-1 alpha/IL-1F1 MFI [9]: 23.8
IL-1 alpha/IL-1F1 Concentration [10]: 320.3 pg/mL and 84.2 pg/mL and 429.6 pg/mL
IL-1 alpha/IL-1F1 MFI [10]: 25.0 and 18.0 and 28.5
IL-1 alpha/IL-1F1 Concentration [11]: 275.3 pg/mL
IL-1 alpha/IL-1F1 MFI [11]: 24.0
IL-1 alpha/IL-1F1 Concentration [12]: 535.6 pg/mL and 1.9 pg/mL and 288.4 pg/mL
IL-1 alpha/IL-1F1 MFI [12]: 32.0 and 16.0 and 24.0
